The values that follow come from patent US10328114B2, “Lung injury repair compositions and methods” (University of Iowa Research Foundation, priority 2015, dated 2019).

Entries after “also recorded” stand apart in the source; their conditions may differ. Where two headings read alike, the source gives them in different places. *: point of attachment. Myristoyl = CCCCCCCCCCCCCC(=O)*

Assay [1] deals with BALF isolated cells from bleomycin treated mice. In words: ROS production (extracellular H2O2) of BALF cells, p-hydroxyphenylacetate method. It counts as in vivo, mouse. Particulars: week 1 post initial instillation. As to the method:
(§1) Animal protocols were approved by the Institutional Animal Care and Use Committee at the University of Iowa. C57BL/6 mice (Jackson Laboratories, Bar Harbor, Me.) were anesthetized followed by intratracheal instillation of: (A) Control (Ctrl): 1 μl of DMSO (Sigma, St. Louis, Mo.) plus 49 μl of PBS; (B) Bleomycin (Bleo): 1 μl of DMSO plus 49 μl of bleomycin (APP pharmaceuticals, LLC Schaumburg, Ill.) dissolved in PBS (4 U/kg); (C) Bleomycin/PKCζi (Bleo/PKCζi): 1 μg of PKCζi (Calbiochem EMD Biosciences, San Diego, Calif.) solubilized in 1 μl of DMSO plus 49 μl of bleomycin (4 U/Kg) dissolved in PBS (Calbiochem EMD Biosciences, San Diego, Calif.). After this treatment, all mice were instilled (50 μl) every 72 hours with 1 μl of DMSO plus 49 μl of PBS in the Ctrl and Bleo group or with 1 μg of PKCζi dissolved in 1 μl of DMSO plus 49 μl of PBS in the Bleo/PKCζi group for the duration of the experiment. Mice were treated for up to 6 weeks (FIG. 1A). All conditions had between 4 to 6 animals.
BALF cells from week 1 post initial instillation were determined by the p-hydroxyphenylacetate method as reported previously (25).

Assay [2] relates to bleomycin induced ALI mouse model. In words: Lung compliance (flexiVent) in bleomycin ALI model. It counts as in vivo. Particulars: for lung compliance, PKC-ζi instilled post injury: measured at one week; for lung compliance: week 1 post injury, PKCζi given with bleomycin and every 72 hours. The protocol: (§2) (4) PKC-ζi partially preserves lung compliance. Briefly, trachea was surgically exposed and tracheal cannula (18 gauge, Angiocath, Becton Dickinson, Sandy, Utah, USA) placed and secure in the lumen. The mice were paralyzed using intraperitoneal rocuronium (1 mg/Kg) to prevent spontaneous breathing and mechanically ventilated on a computer controlled respirator (flexiVent, SCIREQ Inc., Montreal, Canada). The ventilator was set up to deliver tidal volume 6 ml/kg for 10 minutes; respiratory rate of 150 breaths/min; 3 cmH2O positive end expiratory pressure (PEEP). The compliance was determined using the maneuver Pressure-volume ramp volume regulated (PVrV) to calculate the Quasi-static compliance. […] Since lung compliance is the product of an intact epithelial barrier and surfactant production, and PKCζ have been reported to be involved in surfactant production (Gobran et al., (1998). “PKCζ isoforms and other signaling proteins involved in surfactant secretion in developing rat type II cells.” Am J Physiol 274(6 Pt 1): L901-907), the inventors decided to examine by Western blot analysis total amount of SPC in BALF. […] Therefore, our results are likely due to preservation of the alveolar epithelial barrier.
(7) Treatment of mice with PKC-ζi after initial injury continues to be effective in preserving lung compliance. Since the majority of clinical scenarios involve the treatment of patients with established ALI, we set out to examine the effect of PKC-ζi post injury by instilling 6 and 24 hours after bleomycin instillation. Lung compliance was measured at one week.
as §1
Mice were anesthetized, paralyzed and lung function assessed with the flexiVent Legacy. (SCIREQ Inc., Montreal, Canada).

The subject of assay [3] is surfactant protein C (SPC). Put plainly: Surfactant protein C (SPC) by Western blot in bleomycin ALI model. Format: in vivo, mouse. As to the method:
as §2
Animal protocols were approved by the Institutional Animal Care and Use Committee at the University of Iowa. […]

In assay [4] the test system is isolated rat primary alveolar epithelial cells. The following applies: hypoxia and diesel exhaust particle in vitro lung injury models, cited from earlier work.

For “N-Myristoyl-Ser-Ile-Tyr-Arg-Arg-Gly-Ala-Arg-Arg-Trp-Arg-Lys-Leu-OH (Myristoyl-SIYRRGARRWRKL-OH; SMILES CCCCCCCCCCCCCC(=O)N[C@@H](CO)C(=O)N[C@H](C(=O)N[C@@H](Cc1ccc(O)cc1)C(=O)N[C@@H](CCCNC(=N)N)C(=O)N[C@@H](CCCNC(=N)N)C(=O)NCC(=O)N[C@@H](C)C(=O)N[C@@H](CCCNC(=N)N)C(=O)N[C@@H](CCCNC(=N)N)C(=O)N[C@@H](Cc1c[nH]c2ccccc12)C(=O)N[C@@H](CCCNC(=N)N)C(=O)N[C@@H](CCCCN)C(=O)N[C@@H](CC(C)C)C(=O)O)[C@@H](C)CC) [PKCζi]”, the “ROS production / extracellular hydrogen peroxide (H2O2) of BALF cells” value is recorded as “does not reduce extracellular hydrogen peroxide (H2O2) in BALF isolated cells from bleomycin treated mice lung” in assay [1] and “did not prevent ROS production in bleomycin treated mice” in assay [1] (listed as PKC-ζi). In addition, the “lung compliance, PKC-ζi instilled post injury” value in assay [2] (instillation 6 hours after bleomycin) was “prevented the decrease in lung compliance”; in assay [2] (instillation 24 hours after bleomycin), “no protective effect”. In addition, the lung compliance result in assay [2] is recorded as “partial but statistically significant prevention in the lung compliance decrease compared to bleomycin alone group; also recorded: preserves lung compliance compare to bleomycin”; in assay [2] (listed as PKC-ζi) it was “partially preserve lung compliance compared to control”. Besides, the “total amount of SPC in BALF (Western blot)” value in assay [3] (Example 1) is “did not prevent a reduction in SPC”. Moreover, the “total SPC in whole lungs (Western blot)” value in assay [3] (week 1, Example 2) is “did not prevent the reduction in SPC caused by bleomycin injury; also recorded: does not prevent total SPC decrease in the lungs”. The “alveolar epithelial barrier integrity” value in assay [4] is given as “prevents the disruption of the epithelial barrier in isolated rat primary alveolar epithelial cells”; in assay [4] (listed as PKC-ζ inhibitor), “preserves the alveolar epithelial barrier”.
